From patent publication US9180156B2, “Composition for controlling increase in blood glucose” (priority 2008, dated 2015)

What was measured:
[1] = Intraperitoneal glucose tolerance test (IPGTT) in rats; type: in vivo, rat; conditions: catechin 10 mg/kg i.v. 30 min before glucose 2.0 g/kg i.p.; 12-h fasted rats (FIG. 2)
Method: Sprague-Dawley rats were provided by Hyochang Science Co. (Seoul, Korea). After a 12-h fast, rats were anesthetized using pentobarbital sodium (40 mg/kg, i.p.; Nembutal, 50 mg/ml, Hanlim Pharmaceutical Co., Seoul, Korea) and then injected with one of the epicatechins: EGCG, EGC, ECG, and EC (each 10 mg/kg in 300 μl PBS, i.v.). EC was dissolved in a minute amount of DMSO in advance before addition of PBS. In another experiment, rats were randomly divided into 3 groups: control, GTE and GTE-GC. The rats in the GTE group were injected with natural GTE (100 mg/kg in 300 μl PBS, i.v.; 10 mg/kg as EGCG) through the tail vein, while the control rats were injected with only 300 μl PBS and rats in the GTE-GC group were given an equal amount of GC-deficient GTE (100 mg/kg in 300 μl PBS, i.v.; 2.6 mg/kg as EGCG). Thirty minutes after the injection, glucose (2.0 g/kg in 600 μl distilled water, i.p.) was injected. For OGTT, the rats were ingested with 1-ml distilled water only (control), or 1-ml distilled water containing one of natural GTE (900 mg/kg), GC-deficient GTE (900 mg/kg), EGCG (90 mg/kg), natural GTE plus PEG (110 mg/100 mg EGCG) or PEG alone. Immediately after the ingestion, each rat was orally given 1-ml distilled water containing glucose (2 g/kg). For the assay of blood glucose levels, blood was drawn from the tail vein at the indicated times. All the experiments were approved by the Keimyung University institutional ethics committee, Daegu, Korea for supervising animal research.

[2] = target: T1, glucose transporter type 1 (Homo sapiens, UniProt P11166); conditions: red blood cells; read-out: concentration competing with glucose such that the reaction rate was half its maximal value; cited from earlier work
T1 construct: glucose transporter type 1 in red blood cells; host or cells: red blood cells (erythrocytes)
T1 sequence (P11166 1-492): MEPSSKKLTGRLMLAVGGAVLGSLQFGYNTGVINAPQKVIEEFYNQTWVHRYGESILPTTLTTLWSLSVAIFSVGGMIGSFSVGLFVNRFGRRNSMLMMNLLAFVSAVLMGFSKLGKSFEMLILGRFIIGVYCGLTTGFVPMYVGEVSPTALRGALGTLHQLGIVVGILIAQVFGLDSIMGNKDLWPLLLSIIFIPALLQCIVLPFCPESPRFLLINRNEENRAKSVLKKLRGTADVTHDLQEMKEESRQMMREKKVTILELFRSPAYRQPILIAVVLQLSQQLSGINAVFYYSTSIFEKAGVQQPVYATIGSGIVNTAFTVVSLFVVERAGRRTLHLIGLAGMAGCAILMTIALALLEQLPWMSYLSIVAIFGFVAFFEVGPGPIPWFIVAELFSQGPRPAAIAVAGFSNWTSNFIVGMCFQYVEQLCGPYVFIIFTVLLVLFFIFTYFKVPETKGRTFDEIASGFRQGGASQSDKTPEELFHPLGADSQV

U937 cells = conditions: cited from earlier work
OGTT in rats = type: in vivo, rat; conditions: GC-deficient GTE 900 mg/kg or EGCG 90 mg/kg oral immediately before oral glucose; rats (FIG. 6D)
[3] = Insulin tolerance test (ITT) in normal rats; type: in vivo, rat
Method: Kir6.2 knock-out (k/o) mice were kindly provided by Prof. Susumu Seino at Kobe University in Japan. Following a 4-h fast, Kir6.2 k/o mice or normal rats were intravenously injected with PBS (100 μl for mouse, 300 μl for rat) only, or PBS containing EGCG (10 mg/kg), natural GTE (100 mg/kg) or GC-deficient GTE (100 mg/kg). Thirty minutes after the injection, the mice and rats were injected intraperitoneally with normal saline (300 μl for mouse, 600 μl for rat) containing insulin (1 IU/kg; INSULIN […], Ind.). Blood samplings were done through the tail vein at the indicated times.

[4] = Insulin tolerance test (ITT) in Kir6.2 k/o mice; type: in vivo, mouse
Method: Kir6.2 knock-out (k/o) mice were kindly provided by Prof. Susumu Seino at Kobe University in Japan. Following a 4-h fast, Kir6.2 k/o mice or normal rats were intravenously injected with PBS (100 μl for mouse, 300 μl for rat) only, or PBS containing EGCG (10 mg/kg), natural GTE (100 mg/kg) or GC-deficient GTE (100 mg/kg). Thirty minutes after the injection, the mice and rats were injected intraperitoneally with normal saline (300 μl for mouse, 600 μl for rat) containing insulin (1 IU/kg; INSULIN LISPRO, Eli Lilly, Ind.). Blood samplings were done through the tail vein at the indicated times.

[5] = tested on: differentiated L6 myoblasts; assay: Deoxyglucose uptake assay, L6; type: cell-based, rat; conditions: EGCG 0.1, 1.0, 10 μM; with or without 100 nM insulin (FIG. 3A)
Method: (§1) Rat L6 myoblasts were cultured in low-glucose DMEM with 10% (v/v) FBS until they reached 80% confluency. To induce differentiation, cells were further cultured in DMEM (24.9 mM glucose) containing 2% FBS for 7 days. Cell viability was assessed by the trypan blue viability test. Myogenic differentiation to myotube status was evaluated both morphologically and biochemically. Mouse 3T3-L1 preadipocytes were grown to confluence at 37° C. in 35-mm culture dishes in DMEM containing 10% FCS with no added biotin or pantothenate in incubators equilibrated with 5% CO2. […] Cell differentiation was evaluated by the Oil red-0 staining. […]
(§2) Briefly, after serum starvation for 30 min, the cells were washed with Krebs-Ringer phosphate-HEPES buffer [KRPH buffer: 10 mM phosphate buffer, pH 7.4; 1 mM MgSO4, 1 mM CaCl2, 136 mM NaCl, 4.7 mM KCl, and 10 mM HEPES, pH 7.6] and then incubated with or without 100 nM insulin for 20 min in KRPH buffer that contained EGCG (0, 0.1, 1.0 or 10 μM). Glucose transport was determined by the addition of 2-deoxy-[^3H] glucose (0.1 mM, 0.5 μCi/ml; PerkinElmer Life and Analytical Science, Waltham, Mass.). […] The cells were then lysed in PBS containing 0.2 M NaOH, and glucose uptake was assessed by scintillation counting.

HepG2 hepatocytes = assay: Deoxyglucose uptake assay, HepG2; type: cell-based, human; conditions: EGCG 0.1, 1.0, 10 μM; with or without 100 nM insulin (FIG. 3B)
Method: as §1, §2

[6] = tested on: differentiated 3T3-L1 adipocytes; assay: Deoxyglucose uptake assay, 3T3-L1; type: cell-based, mouse; conditions: EGCG 0.1, 1.0, 10 μM; with or without 100 nM insulin (FIG. 3C)
Method: as §1, §2

INS-1 beta cells = assay: Deoxyglucose uptake assay, INS-1; type: cell-based, rat; conditions: EGCG 0.1, 1.0, 10 μM; with or without 100 nM insulin (FIG. 3D)
Method: as §1, §2

protein kinase B (PKB) [7] = assay: Western blot of PKB phosphorylation, L6; type: cell-based, rat; conditions: up to 10 μM EGCG; with or without 100 nM insulin (FIG. 4A)
Method: (§3) Rat L6 myoblasts were cultured in low-glucose DMEM with 10% (v/v) FBS until they reached 80% confluency. To induce differentiation, cells were further cultured in DMEM (24.9 mM glucose) containing 2% FBS for 7 days. Cell viability was assessed by the trypan blue viability test. Myogenic differentiation to myotube status was evaluated both morphologically and biochemically. Mouse 3T3-L1 preadipocytes were grown to confluence at 37° C. in 35-mm culture dishes in DMEM containing 10% FCS with no added biotin or pantothenate in incubators equilibrated with 5% CO2. At two days post-confluence (day 0), differentiation was induced with methylisobutylxanthine (0.5 mM), dexamethasone (0.5 μM) and insulin (5 μg/ml) in DMEM containing 10% FBS. On day 2, methylisobutylxanthine and dexamethasone were removed and insulin treatment was continued for 2 additional days. On day 4 and thereafter, DMEM (without insulin supplementation) plus 10% FBS was replaced every 2 days. Cells (2×10^6 cells/dish) were used for experiments on day 8. Cell differentiation was evaluated by the Oil red-0 staining. Human hepatocellular carcinoma HepG2 cell line was maintained in DMEM containing 10% FBS at 37° C. […]

protein kinase B (PKB) [8] = assay: Western blot of PKB phosphorylation, HepG2; type: cell-based, human; conditions: up to 10 μM EGCG; with or without 100 nM insulin (FIG. 4B)
Method: as §3

protein kinase B (PKB) [9] = assay: Western blot of PKB phosphorylation, 3T3-L1; type: cell-based, mouse; conditions: up to 10 μM EGCG; with or without 100 nM insulin (FIG. 4C)
Method: as §3

protein kinase B (PKB) [10] = assay: Western blot of PKB phosphorylation, INS-1; type: cell-based, rat; conditions: up to 10 μM EGCG; with or without 100 nM insulin (FIG. 4D)
[11] = 10 mg/kg i.v.; rats; cited from earlier work
[12] = relatively long-term intraperitoneal application; rats; cited from earlier work

Compound: O=C(O[C@@H]1Cc2c(O)cc(O)cc2O[C@@H]1c1ccc(O)c(O)c1)c1cc(O)c(O)c(O)c1 [ECG, epicatechin-3-gallate]
- blood glucose levels 30 min after glucose loading vs control [1]: more elevated
- IC50 [2]: 100 nM

Compound: Oc1cc(O)c2c(c1)O[C@H](c1cc(O)c(O)c(O)c1)[C@H](O)C2 [EGC, epigallocatechin]
- blood glucose levels 30 min after glucose loading vs control [1]: no effects

Compound: O=c1c(O)c(-c2cc(O)c(O)c(O)c2)oc2cc(O)cc(O)c12 [myricetin]
- concentration that inhibits cellular glucose uptake (U937 cells): around 10 μM

Compound: O=c1c(O)c(-c2ccc(O)c(O)c2)oc2cc(O)cc(O)c12 [quercetin]
- concentration that inhibits cellular glucose uptake (U937 cells): around 10 μM

Compound: Epigallocatechin-3-gallate [EGCG]
- blood glucose levels 30 min after glucose loading vs control [1]: more elevated
- inhibition of glucose absorption compared with the GTE-treated group (OGTT in rats): less efficiently
- rate of blood glucose disappearance when treated with insulin ([3]; EGCG 10 mg/kg i.v. 30 min before insulin 1 IU/kg i.p., rats, P<0.01 (FIG. 5C)): delayed mildly but significantly
- blood glucose levels 30 min after injection ([3]; EGCG 10 mg/kg i.v., 4-h fasted normal rats, P<0.01 (FIG. 5A)): significant elevation
- rate of blood glucose disappearance when treated with insulin ([4]; EGCG 10 mg/kg i.v. 30 min before insulin 1 IU/kg i.p., Kir6.2 k/o mice, P<0.01 (FIG. 5D)): delayed mildly but significantly
- blood glucose levels 30 min after injection ([4]; EGCG 10 mg/kg i.v., 4-h fasted Kir6.2 k/o mice, P<0.01 (FIG. 5B)): significant elevation
- basal and insulin-stimulated 2-deoxy-[3H]-glucose uptake [5]: decreased by EGCG dose-dependently
- basal and insulin-stimulated 2-deoxy-[3H]-glucose uptake (HepG2 hepatocytes): decreased by EGCG dose-dependently
- basal and insulin-stimulated 2-deoxy-[3H]-glucose uptake [6]: decreased by EGCG dose-dependently
- basal and insulin-stimulated 2-deoxy-[3H]-glucose uptake (INS-1 beta cells): decreased by EGCG dose-dependently
- basal and insulin-regulated expression of phospho-PKB (protein kinase B (PKB) [7]): did not alter
- basal and insulin-regulated expression of phospho-PKB (protein kinase B (PKB) [8]): did not alter
- basal and insulin-regulated expression of phospho-PKB (protein kinase B (PKB) [9]): did not alter
- basal and insulin-regulated expression of phospho-PKB (protein kinase B (PKB) [10]): did not alter
- IC50 [2]: 1000 nM
- blood concentration at 30 min after injection [11]: around 1 μM
- effect on body weight [12]: weight loss
- effect on the sexual organs [12]: significant deterioration in the sexual organs
